The results in this text go back to ChEMBL document CHEMBL6092176, “Discovery of pyrazolo[1,5-a]pyrimidine derivatives targeting TLR4-TLR4∗ homodimerization via AI-powered next-generation screening” (Eur J Med Chem, 2024).

Where “and” joins values, the source holds several entries; their conditions need not be identical. Identical values can stand only once. Calls of active or inactive are those of the source. The rule behind the calls is not given here.

Data set [1] can be described thus: Inhibition of TLR4 to MD2 (unknown origin) protein-protein interaction. Further details: species or system Homo sapiens.
Data set [2] has as its target T1, Toll-like receptor 4 (Homo sapiens, UniProt O00206). Description: Inhibition of human TLR4 in LPS-stimulated HEK-Blue hTLR4 cells assessed as reduction in SEAP activity incubated for 24 hrs by microplate reader assay. It is filed as cell-based.
A short description of data set [3]: Cytotoxicity against HEK-Blue hTLR4 cells incubated for 24 hrs by CCK8 assay. The data set is classed as toxicity, cell-based. The note with it: human. (In general: Tetrazolium assays rely on reduction of a dye to a coloured formazan, in cell work by metabolically active cells.)
In data set [4] the target is T1, Toll-like receptor 4. Description: Inhibition of TLR4 (unknown origin) homodimerization.
The test system of data set [5] is Mus musculus. Description: Antiinflammatory activity in LPS-induced C57BL/6 mouse sepsis model assessed as reduction in TNFalpha mRNA expression at 5 mg/kg, ip preadministered with compound for 1 hr followed by LPS stimulation and measured after 15 hrs by RT-qPCR analysis. It is filed as functional, organism-based. The note with it: time 16.0 hrs. On the technique in general: Quantitative PCR measures a nucleic acid by following its amplification.

Data set [6] is described as follows: Half-life in C57BL/6 mouse at 10 mg/kg, ip measured upto 24 hrs. The data set is classed as ADME, organism-based. The note with it: in vivo.
Data set [7] can be described thus: Tmax in C57BL/6 mouse at 10 mg/kg, ip measured upto 24 hrs. The data set is classed as ADME, organism-based. The note with it: in vivo.
Data set [8] is described as follows: Cmax in C57BL/6 mouse at 10 mg/kg, ip measured upto 24 hrs. The data set is classed as ADME, organism-based. The note with it: in vivo.
Data set [9] in a line: AUC(0 to t) in C57BL/6 mouse at 10 mg/kg, ip measured upto 24 hrs. The data set is classed as ADME, organism-based. The note with it: in vivo.
Data set [10] is described as follows: MRT(0 to t) in C57BL/6 mouse at 10 mg/kg, ip measured upto 24 hrs. The data set is classed as ADME, organism-based. The note with it: in vivo.
The nature of data set [11]: Apparent volume of distribution in C57BL/6 mouse at 10 mg/kg, ip measured upto 24 hrs. The note with it: in vivo. It is filed as ADME, organism-based.
A short description of data set [12]: Clearance in C57BL/6 mouse at 10 mg/kg, ip measured upto 24 hrs. The data set is classed as ADME, organism-based. The conditions noted are these: in vivo.
Data set [13] has as its system Mus musculus. Description: Antiinflammatory activity in LPS-induced C57BL/6 mouse sepsis model assessed as survival rate at 10 mg/kg, ip preadministered with compound for 1 hr followed by LPS stimulation and measured after 24 hrs. The data set is classed as functional. The note with it: time 25 hrs.

T1 sequence (O00206 whole entry): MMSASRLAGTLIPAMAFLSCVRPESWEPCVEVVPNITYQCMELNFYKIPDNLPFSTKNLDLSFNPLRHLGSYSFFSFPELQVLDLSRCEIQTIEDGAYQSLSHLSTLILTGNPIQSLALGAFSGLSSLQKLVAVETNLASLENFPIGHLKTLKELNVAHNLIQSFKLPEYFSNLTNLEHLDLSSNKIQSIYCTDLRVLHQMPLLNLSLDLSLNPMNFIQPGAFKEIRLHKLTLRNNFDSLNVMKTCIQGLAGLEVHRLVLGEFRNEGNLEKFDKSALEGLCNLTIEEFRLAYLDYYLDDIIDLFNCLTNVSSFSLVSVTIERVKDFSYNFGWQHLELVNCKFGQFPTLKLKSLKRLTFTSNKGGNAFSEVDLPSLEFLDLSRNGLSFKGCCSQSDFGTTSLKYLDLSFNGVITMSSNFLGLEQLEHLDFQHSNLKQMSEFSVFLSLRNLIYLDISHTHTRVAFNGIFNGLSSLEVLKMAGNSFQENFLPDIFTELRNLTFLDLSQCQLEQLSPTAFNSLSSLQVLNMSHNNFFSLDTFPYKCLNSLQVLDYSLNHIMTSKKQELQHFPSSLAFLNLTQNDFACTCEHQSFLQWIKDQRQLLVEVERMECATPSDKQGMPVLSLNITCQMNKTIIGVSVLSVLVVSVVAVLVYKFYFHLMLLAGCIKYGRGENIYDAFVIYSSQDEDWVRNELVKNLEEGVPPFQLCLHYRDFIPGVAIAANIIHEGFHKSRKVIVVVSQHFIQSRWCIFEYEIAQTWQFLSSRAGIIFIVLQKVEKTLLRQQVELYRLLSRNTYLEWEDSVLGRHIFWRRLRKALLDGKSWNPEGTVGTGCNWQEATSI

The IC50 is the concentration needed to halve the response being measured. Turning to `Cc1nn(Cc2ccccc2Cl)c(C)c1CN(C)CC(O)COc1ccc(Cl)cc1` (stereo not drawn), the IC50 in data set [1] was 18.7 µM.
As for `FC(F)c1cc(-c2ccc(Cl)cc2)nc2c(C(=S)N3C[C@H]4CCCC[C@H]4C3)cnn12`, the IC50 in data set [2] is greater than 50 µM. In [3], this compound had an IC50 at 24 h greater than 50 µM.
On to `CC(C)(C)OC(=O)N1CCN(C(=O)c2cnn3c(C(F)F)cc(-c4ccc(Cl)cc4)nc23)CC1`, for which the IC50 in data set [2] was greater than 50 µM. For the same compound, the IC50 at 24 h in data set [3] was greater than 50 µM.
As to `O=C(c1cnn2c(C(F)(F)F)cc(-c3ccc(Cl)cc3)nc12)N1CCC2(CC1)OCCO2`, the IC50 in [2] is greater than 50 µM. This compound also came in with an IC50 at 24 h in data set [3] greater than 50 µM.
As for `O=C(c1cnn2c(C(F)F)cc(-c3ccc(Cl)cn3)nc12)N1C[C@H]2CCCC[C@H]2C1`, in [2], the IC50 was 11.8 µM. Besides, in [3], the IC50 at 24 h is greater than 50 µM.
As to `CC(=O)N1CCN(C(=O)c2cnn3c(C(F)F)cc(-c4ccc(Cl)cc4)nc23)CC1`, the IC50 in data set [2] was greater than 50 µM. Besides, in data set [3], the IC50 at 24 h is greater than 50 µM.
Compound `CCOc1ccc(OCC(O)CN(C)Cc2c(C)nn(Cc3ccccc3Cl)c2C)cc1` (stereo not drawn) registered an IC50 in data set [1] of 48.1 µM.
With `O=C(Nc1ccc(S(=O)(=O)NC2CC2)cc1)c1cnn2c(C(F)F)cc(-c3ccc(Cl)cc3)nc12`, the IC50 in data set [2] came out at 10.5 µM. In [3], this compound registered an IC50 at 24 h greater than 50 µM.
For `O=C(c1cnn2c(C(F)F)cc(C34CC5CC(CC(C5)C3)C4)nc12)N1C[C@H]2CCCC[C@H]2C1`, the IC50 in data set [2] was greater than 50 µM. In data set [3], the IC50 at 24 h is greater than 50 µM.
In the case of `FC(F)c1cc(-c2ccc(Cl)cc2)nc2cc(C(=S)N3C[C@H]4CCCC[C@H]4C3)nn12`, the IC50 in data set [2] was greater than 50 µM. The same compound gave an IC50 at 24 h in [3] greater than 50 µM.
For `NC1CCN(C(=O)c2cnn3c(C(F)F)cc(-c4ccc(Cl)cc4)nc23)CC1`, the IC50 in data set [2] is greater than 50 µM. Moreover, in [3], the IC50 at 24 h was greater than 50 µM.
For `Cc1ccc(-c2cc(C(F)F)n3ncc(C(=O)N4CCC5(CC4)OCCO5)c3n2)cc1`, the IC50 in data set [2] and in data set [4] was 14 µM throughout. This compound also registered a 50% inhibitory concentration (IC50) at 24 h in [3] greater than 50 µM.
Turning to `Cc1ccc(-c2cc(C(F)(F)F)n3ncc(C(=O)N4CCC5(CC4)OCCO5)c3n2)cc1`, the IC50 in data set [2] is greater than 50 µM. The compound further came in with a 50% inhibitory concentration (IC50) at 24 h in data set [3] greater than 50 µM.
As for `O=C(c1cnn2c1NC(c1ccc(Cl)cc1)CC2C(F)F)N1C[C@H]2CCCC[C@H]2C1` (stereo partly drawn), the IC50 in [2] was greater than 50 µM. In data set [3], this compound yielded an IC50 at 24 h greater than 50 µM.
Take `O=C(c1cnn2c(C(F)F)cc(-c3ccc(F)cc3)nc12)N1CCC2(CC1)OCCO2`: the IC50 in data set [2] is greater than 50 µM. In [3], this compound displayed an IC50 at 24 h greater than 50 µM.
With `CN1CCN(C(=O)c2cnn3c(C(F)F)cc(-c4ccc(Cl)cc4)nc23)CC1`, the IC50 in data set [2] amounted to 30.6 µM. The compound further came in with an IC50 at 24 h in data set [3] greater than 50 µM.
Turning to `O=C(c1cnn2c(C(F)F)cc(-c3ccc(Cl)cc3)nc12)N1CCC2(CCCCC2)CC1`, the IC50 in [2] was greater than 50 µM. Also, the IC50 at 24 h in data set [3] was greater than 50 µM.
Turning to `C[C@@H]1C[C@H]2[C@@H]3CCC4=CC(=O)C=C[C@]4(C)[C@@]3(F)[C@@H](O)C[C@]2(C)[C@@]1(O)C(=O)CO`, in data set [5], the result was inactive.
In the case of `O=C(c1cnn2c(O)cc(-c3ccc(Cl)cc3)nc12)N1CCC2(CC1)OCCO2`, in data set [2], the IC50 was greater than 50 µM. Moreover, in data set [3], the IC50 at 24 h is greater than 50 µM.
`O=C(Oc1ccnc2c(Br)cccc12)c1cnn2c(C(F)F)cc(-c3ccc(Cl)cc3)nc12`: the IC50 in data set [2] stood at 15.5 µM. Moreover, the 50% inhibitory concentration (IC50) at 24 h in data set [3] is greater than 50 µM.
`COc1ccc(-c2cc(C(F)F)n3ncc(C(=O)N4CCC5(CC4)OCCO5)c3n2)cc1OC`: the IC50 in [2] was greater than 50 µM. The IC50 at 24 h in [3] is greater than 50 µM.
For `O=C(c1cnn2c(C(F)F)cc(-c3ccc(Br)cc3)nc12)N1CCC2(CC1)OCCO2`, the half-maximal inhibitory concentration (IC50) in [2] is greater than 50 µM. Further, the IC50 at 24 h in data set [3] is greater than 50 µM.
`CCOC(=O)C1=CCCC[C@H]1S(=O)(=O)Nc1ccc(F)cc1Cl` [RESATORVID]: the IC50 in data set [2] is 0.047 µM and 0.06 µM. In data set [3], this compound showed an IC50 at 24 h greater than 50 µM.
For `O=C(c1cnn2c(C(F)F)cc(-c3ccc(Cl)cc3)nc12)N1CCC2(CC1)OCCO2`, the IC50 in data set [2] turned out to be 4.94 µM. In data set [3], this compound returned an IC50 at 24 h greater than 50 µM.
On to `O=C(c1cnn2c(C(F)F)cc(-c3ccc(Cl)cc3)nc12)N1CCSCC1`, for which the IC50 in data set [2] is greater than 50 µM. The compound also had an IC50 at 24 h in data set [3] greater than 50 µM.
What is called Tmax is the time from dosing to the highest level. Usually Cmax stands for the peak of the concentration-time curve. The MRT last is the average time that molecules of a dose stay in the body. In turn, `O=C(c1cnn2c(C(F)F)cc(-c3ccc(Cl)cc3)nc12)N1C[C@H]2CCCC[C@H]2C1` yielded a t1/2 in data set [6] of 2.74 h. Also, the Tmax in data set [7] came out at 0.333 h. For the same compound, in [8], the Cmax turned out to be 760 ng/mL. Besides, in data set [9], the AUCt was 1560 ng·h/mL. The MRT last at 24 h in data set [10] came to 2.55 h. In [11], the Vz amounted to 25.4 L/kg. Also, the CL in data set [12] amounted to 107 mL/min/kg. The survival at 10 mg/kg in data set [13] was determined as 60%.
For the compound `CC(C)(C)OC(=O)NC1CCN(C(=O)c2cnn3c(C(F)F)cc(-c4ccc(Cl)cc4)nc23)CC1`, the IC50 in [2] was 24 µM. Besides, the IC50 at 24 h in data set [3] turned out to be 45.9 µM.
